Assays:
[1] = target: T1, recombinant Tdp1 (residues 149–608) (Homo sapiens, UniProt Q9NUW8); experiment: Intrinsic tryptophan fluorescence quenching binding assay; settings: 10 µM Tdp1, 20 mM Tris, 250 mM NaCl, pH 8; triplicate
T1 construct: recombinant Tdp1 (residues 149–608) was obtained from GenScript; host or cells: E. coli BL21(DE3)
Method: The binding of the synthesized compounds to recombinant Tdp1 was also tested (Table 1 and Table 2) by using an intrinsic tryptophan fluorescence quenching assay. […] As our compounds are aromatic in nature, there is a possibility that they may bind to both the active site as well as non-specifically to the DNA/peptide binding pockets. Nonetheless, our results confirmed that the compounds were indeed binders of Tdp1, thus complementing our inhibition data.
pET-28a(+) plasmid encoding recombinant Tdp1 (residues 149–608) was obtained from GenScript. E. coli BL21(DE3) was used for recombinant protein production. Protein production was induced with 1 mM IPTG at 28 °C with overnight incubation. Tdp1 was purified using affinity and size exclusion chromatography. Fluorescence was measured using a PerkinElmer EnSpire Multimode Reader. Tdp1 concentration was 10 μM with varying compound concentrations. The buffer was 20 mM Tris and 250 mM NaCl (pH 8). The excitation wavelength was 280 nm and intrinsic fluorescence was measured at 350 nm. Control experiments with Tdp1 or the compound on its own were also conducted. Background fluorescence arising from the compounds was subtracted from the final spectrum. The total volume per well was 30 μL. The dissociation constant (KD) was calculated using Equation (1), which takes non-specific binding into account. y = Bmaxx/(KD + x) + Nsx(1) where y denotes the changes in fluorescence intensity; x denotes the concentration of the compounds; Bmax denotes the maximum changes in fluorescence intensity; and Ns is a scaling factor for non-specific binding. Experiments were conducted in triplicate.

[2] = target: T2, Tdp1 (Homo sapiens, UniProt Q9NUW8); experiment: Real-time detection of Tdp1 activity (5'-FAM/3'-BHQ1 oligonucleotide biosensor); format: biochemical; settings: 1.5 nM Tdp1, 50 nM oligonucleotide substrate, 26 °C
T2 construct: made in house; host or cells: Escherichia coli
T2 sequence (Q9NUW8 whole entry): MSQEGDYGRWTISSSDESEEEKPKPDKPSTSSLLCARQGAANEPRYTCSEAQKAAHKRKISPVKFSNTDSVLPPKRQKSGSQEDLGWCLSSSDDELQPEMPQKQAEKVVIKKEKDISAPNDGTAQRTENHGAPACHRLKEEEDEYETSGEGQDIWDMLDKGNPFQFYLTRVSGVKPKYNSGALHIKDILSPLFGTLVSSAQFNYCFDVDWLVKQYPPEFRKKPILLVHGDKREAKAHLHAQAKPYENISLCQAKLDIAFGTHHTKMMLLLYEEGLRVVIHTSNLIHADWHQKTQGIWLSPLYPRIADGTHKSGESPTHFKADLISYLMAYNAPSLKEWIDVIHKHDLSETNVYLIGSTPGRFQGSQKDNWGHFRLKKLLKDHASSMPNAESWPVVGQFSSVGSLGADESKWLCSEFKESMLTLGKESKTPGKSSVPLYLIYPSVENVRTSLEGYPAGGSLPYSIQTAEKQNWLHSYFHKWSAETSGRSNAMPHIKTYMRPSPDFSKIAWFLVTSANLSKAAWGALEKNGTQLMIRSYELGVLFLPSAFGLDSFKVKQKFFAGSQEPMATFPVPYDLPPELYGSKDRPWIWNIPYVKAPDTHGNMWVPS
Text: We first studied the inhibition potency of our compounds to Tdp1 by using a real-time oligonucleotide biosensor assay that we have previously developed. The assay was based on the ability of Tdp1 to remove the fluorescence quencher from the 3’-end of DNA. The substrate is a 16-mer single-stranded oligonucleotide containing both a 5’-FAM fluorophore and a 3’-BHQ1 quencher.
A fluorophore quencher-coupled DNA-biosensor for real-time measurement of Tdp1 cleavage activity was recently designed in our laboratory. The biosensor is a 16-mer single-stranded oligonucleotide containing both a 5’-FAM fluorophore donor and a quenching 3’-BHQ1 moiety.
Recombinant protein Tdp1 was expressed in EsCherichia coli (pET 16B plasmid containing Tdp1 cDNA provided by Dr. K.W. Caldecott, University of Sussex, United Kingdom) and isolated as described. The reaction mixture in a final volume 200 μL contained Tdp1 reaction buffer (50 mM Tris-HCl, 50 mM NaCl, 7 mM β-mercaptoethanol), 50 nM oligonucleotide substrate, and varied concentrations of potential inhibitor. Purified Tdp1 was added in a final concentration of 1.5 nM.
The reaction mixtures were incubated at a constant temperature of 26 °C in a POLARstar OPTIMA fluorimeter, BMG LABTECH, GmbH, to measure fluorescence intensity every minute (Ex485/Em520 nm). Tdp1 inhibition was calculated by comparing the rate of increase in fluorescence of the biosensor in the presence of the compound to that of DMSO (1.5%) control wells. The measurements were carried out in at least two independent experiments. IC50 values were determined using a six-point concentration response curve. The data were imported into the MARS Data Analysis 2.0 program (BMG LABTECH) and the slope during the linear phase (data from 0 to 7 min) was calculated.

T1 sequence (Q9NUW8 149-608): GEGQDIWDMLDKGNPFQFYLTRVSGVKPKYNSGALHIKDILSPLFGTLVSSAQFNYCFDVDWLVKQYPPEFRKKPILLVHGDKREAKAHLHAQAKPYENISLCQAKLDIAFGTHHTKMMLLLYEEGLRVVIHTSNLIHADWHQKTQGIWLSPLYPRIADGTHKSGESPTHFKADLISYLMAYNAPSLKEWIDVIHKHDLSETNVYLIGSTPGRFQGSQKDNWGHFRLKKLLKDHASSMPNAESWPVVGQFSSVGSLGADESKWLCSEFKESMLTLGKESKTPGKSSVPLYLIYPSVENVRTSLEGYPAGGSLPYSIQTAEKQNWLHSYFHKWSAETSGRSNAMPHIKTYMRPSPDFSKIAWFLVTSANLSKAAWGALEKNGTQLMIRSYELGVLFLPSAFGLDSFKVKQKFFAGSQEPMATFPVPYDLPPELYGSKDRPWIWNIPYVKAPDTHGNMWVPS

Row | Compound | Kd [1] [nM] | IC50 [2] [nM]
1 | COc1ccc(/C=N/Nc2nc(-c3c(O)c(C)c(O)c4c3OC3=CC(O)=C(C(C)=O)C(=O)[C@@]34C)cs2)cc1COc1ccccc1F [(+)-17c, (2R)-4-Acetyl-10-{2-[(E)-2-({3-[(2-fluorophenoxy)methyl]-4-methoxyphenyl}methylidene)hydrazin-1-yl]-1,3-thiazol-4-yl}-5,11,13-trihydroxy-2,12-dimethyl-8-oxatricyclo[7.4.0.0^2,7]trideca-1(9),4,6,10,12-pentaen-3-one] | 204000 ± 23000 | 41 ± 7
2 | CC(=O)C1=C(O)C=C2Oc3c(-c4csc(N/N=C/c5ccc([N+](=O)[O-])s5)n4)c(O)c(C)c(O)c3[C@@]2(C)C1=O [(+)-16d, (2R)-4-Acetyl-5,11,13-trihydroxy-2,12-dimethyl-10-{2-[(E)-2-[(5-nitrothiophen-2-yl)methylidene]hydrazin-1-yl]-1,3-thiazol-4-yl}-8-oxatricyclo[7.4.0.0^2,7]trideca-1(9),4,6,10,12-pentaen-3-one] | 597000 ± 98000 | 70 ± 4
3 | CC(=O)C1=C(O)C=C2Oc3c(-c4csc(N/N=C/c5cccs5)n4)c(O)c(C)c(O)c3[C@]2(C)C1=O [(−)-16g, (2S)-4-Acetyl-5,11,13-trihydroxy-2,12-dimethyl-10-{2-[(E)-2-[(thiophen-2-yl)methylidene]hydrazin-1-yl]-1,3-thiazol-4-yl}-8-oxatricyclo[7.4.0.0^2,7]trideca-1(9),4,6,10,12-pentaen-3-one] | 281000 ± 25000 | 169 ± 6
4 | COc1ccc(/C=N/Nc2nc(-c3c(O)c(C)c(O)c4c3OC3=CC(O)=C(C(C)=O)C(=O)[C@@]34C)cs2)cc1CN1CCN(c2ccc(F)cc2)CC1 [(+)-17i, (2R)-4-Acetyl-10-{2-[(E)-2-[(3-{[4-(4-fluorophenyl)piperazin-1-yl]methyl}-4-methoxyphenyl)methylidene]hydrazin-1-yl]-1,3-thiazol-4-yl}-5,11,13-trihydroxy-2,12-dimethyl-8-oxatricyclo[7.4.0.0^2,7]trideca-1(9),4,6,10,12-pentaen-3-one] | 161000 ± 22000 | 80 ± 7
5 | CC(=O)C1=C(O)C=C2Oc3c(-c4csc(N/N=C/c5ccco5)n4)c(O)c(C)c(O)c3[C@@]2(C)C1=O [(+)-16k, (2R)-4-Acetyl-5,11,13-trihydroxy-2,12-dimethyl-10-{2-[(E)-2-[(furan-2-yl)methylidene] hydrazin-1-yl]-1,3-thiazol-4-yl}-8-oxatricyclo[7.4.0.0^2,7]trideca-1(9),4,6,10,12-pentaen-3-one] | 67000 ± 9000 | 120 ± 15
6 | COc1ccc(/C=N/Nc2nc(-c3c(O)c(C)c(O)c4c3OC3=CC(O)=C(C(C)=O)C(=O)[C@@]34C)cs2)cc1CSc1cc(C)ccc1C(C)(C)C [(+)-17g, (2R)-4-Acetyl-10-{2-[(E)-2-[(3-{[(2-tert-butyl-5-methylphenyl)sulfanyl]methyl}-4-methoxyphenyl)methylidene]hydrazin-1-yl]-1,3-thiazol-4-yl}-5,11,13-trihydroxy-2,12-dimethyl-8-oxatricyclo[7.4.0.0^2,7]trideca-1(9),4,6,10,12-pentaen-3-one] | 223000 ± 42000 | 122 ± 25
7 | CC(=O)C1=C(O)C=C2Oc3c(-c4csc(N/N=C/c5ccc[nH]5)n4)c(O)c(C)c(O)c3[C@]2(C)C1=O [(−)-16m, (2S)-4-Acetyl-5,11,13-trihydroxy-2,12-dimethyl-10-{2-[(E)-2-[(1H-pyrrol-2-yl)methylidene] hydrazin-1-yl]-1,3-thiazol-4-yl}-8-oxatricyclo[7.4.0.0^2,7]trideca-1(9),4,6,10,12-pentaen-3-one] | 354000 ± 40000 | 18 ± 1
8 | COc1ccc(/C=N/Nc2nc(-c3c(O)c(C)c(O)c4c3OC3=CC(O)=C(C(C)=O)C(=O)[C@]34C)cs2)cc1COc1ccccc1F [(−)-17c, (2S)-4-Acetyl-10-{2-[(E)-2-({3-[(2-fluorophenoxy)methyl]-4-methoxyphenyl}methylidene)hydrazin-1-yl]-1,3-thiazol-4-yl}-5,11,13-trihydroxy-2,12-dimethyl-8-oxatricyclo[7.4.0.0^2,7]trideca-1(9),4,6,10,12-pentaen-3-one] | 74000 ± 4000 | 37 ± 10
9 | COc1ccc(/C=N/Nc2nc(-c3c(O)c(C)c(O)c4c3OC3=CC(O)=C(C(C)=O)C(=O)[C@@]34C)cs2)cc1COc1ccc(F)cc1 [(+)-17a, (2R)-4-Acetyl-10-{2-[(E)-2-({3-[(4-fluorophenoxy)methyl]-4-methoxyphenyl}methylidene)hydrazin-1-yl]-1,3-thiazol-4-yl}-5,11,13-trihydroxy-2,12-dimethyl-8-oxatricyclo[7.4.0.0^2,7]trideca-1(9),4,6,10,12-pentaen-3-one] | 212000 ± 25000 | 26 ± 8
10 | COc1ccc(/C=N/Nc2nc(-c3c(O)c(C)c(O)c4c3OC3=CC(O)=C(C(C)=O)C(=O)[C@]34C)cs2)cc1Cn1nc(C)c([N+](=O)[O-])c1C [(−)-17k, (2S)-4-Acetyl-10-{2-[(E)-2-({3-[(3,5-dimethyl-4-nitro-1H-pyrazol-1-yl)methyl]-4-methoxyphenyl}methylidene)hydrazin-1-yl]-1,3-thiazol-4-yl}-5,11,13-trihydroxy-2,12-dimethyl-8-oxatricyclo[7.4.0.0^2,7]trideca-1(9),4,6,10,12-pentaen-3-one] | 142000 ± 11000 | 46 ± 5
11 | CC(=O)C1=C(O)C=C2Oc3c(-c4csc(N/N=C/c5ccc(-c6cccc(Cl)c6)o5)n4)c(O)c(C)c(O)c3[C@@]2(C)C1=O [(+)-16r, (2R)-4-Acetyl-10-{2-[(E)-2-{[5-(3-chlorophenyl)furan-2-yl]methylidene}hydrazin-1-yl]-1,3-thiazol-4-yl}-5,11,13-trihydroxy-2,12-dimethyl-8-oxatricyclo[7.4.0.0^2,7]trideca-1(9),4,6,10,12-pentaen-3-one] | 113000 ± 52000 | 55 ± 8
12 | CC(=O)C1=C(O)C=C2Oc3c(-c4csc(N/N=C/c5ccccn5)n4)c(O)c(C)c(O)c3[C@@]2(C)C1=O [(+)-16b, 2-[(1E)-(2-{4-[(1R)-12-Acetyl-3,5,11-trihydroxy-1,4-dimethyl-13-oxo-8-oxatricyclo[7.4.0.0^2,7]trideca-2(7),3,5,9,11-pentaen-6-yl]-1,3-thiazol-2-yl}hydrazin-1-ylidene)methyl]pyridin-1-ium bromide] | 77000 ± 24000 | 492 ± 88
13 | COc1ccc(/C=N/Nc2nc(-c3c(O)c(C)c(O)c4c3OC3=CC(O)=C(C(C)=O)C(=O)[C@]34C)cs2)cc1COc1ccc(Cl)c(C)c1 [(−)-17h, (2S)-4-Acetyl-10-{2-[(E)-2-({3-[(4-chloro-3-methylphenoxy)methyl]-4-methoxyphenyl}methylidene)hydrazin-1-yl]-1,3-thiazol-4-yl}-5,11,13-trihydroxy-2,12-dimethyl-8-oxatricyclo[7.4.0.0^2,7]trideca-1(9),4,6,10,12-pentaen-3-one] | – | 48 ± 2
14 | COc1ccc(/C=N/Nc2nc(-c3c(O)c(C)c(O)c4c3OC3=CC(O)=C(C(C)=O)C(=O)[C@]34C)cs2)cc1CN1CCN(c2ccc(F)cc2)CC1 [(−)-17i, (2S)-4-Acetyl-10-{2-[(E)-2-[(3-{[4-(4-fluorophenyl)piperazin-1-yl]methyl}-4-methoxyphenyl)methylidene]hydrazin-1-yl]-1,3-thiazol-4-yl}-5,11,13-trihydroxy-2,12-dimethyl-8-oxatricyclo[7.4.0.0^2,7]trideca-1(9),4,6,10,12-pentaen-3-one] | – | 59 ± 5
15 | (2R)-4-Acetyl-5,11,13-trihydroxy-2,12-dimethyl-10-{2-[(E)-2-[(1H-2-methyl-indole-3-yl) methylidene]hydrazin-1-yl]-1,3-thiazol-4-yl}-8-oxatricyclo[7.4.0.0^2,7]trideca-1(9),4,6,10,12-pentaen-3-one [(+)-16q] | – | 21 ± 6
